In patent EP0933027A1, “Methods and compositions for protecting animals and humans against attack and infestation by arthropod and helminth parasites” (American Cyanamid Company, priority 1998, dated 1999):
Like-named read-outs stand apart in the source and are kept apart here.

Experiments:
Dermacentor variabilis = assay: Contact activity against larval American dog tick (coated vial)
Experimental: This test is designed to evaluate the contact activity of test compounds against the American dog tick. Test compounds are dissolved in 100% acetone to 1000, 300, 100, 10, 1 and 0.1 ppm. 100 µL of each of these dilutions is added to the bottom of a 20 mL glass scintillation vial with a pipettor. The vial is allowed to dry under a fume hood for 15 minutes. The vial is then turned in its side, and 250 µL of each dilution is applied to the sides of the vial. The vial is placed on a rolling machine and allowed to roll under the hood, coating the sides of the vial, until the acetone completely evaporates. The bottom of the vial measures 4.909 cm^2 and the sides measure 4.5 cm high x 8.8 cm around, so that the total coated area of the scintillation vial measures 44.51 cm^2. The amount of test compound applied by each dilution equals 7.86, 2.36, 0.79, 0.079, 0.0079 and 0.00079 µg/cm^2, respectively. Unfed larval dog ticks are counted into the scintillation vials with a slightly damp paintbrush. Ten ticks are placed in each vial. These tests are done in replicates of two or three so that there are 20 to 30 ticks per rate/compound. Mortality readings are taken 4 and 24 hours after placing the ticks in the vials. To read the test, the vial is placed under a magnifying glass and tapped gently. […] Percent mortality is then calculated for each treatment.

Musca domestica = assay: Coated vial test against adult house fly
Experimental: This test is designed to evaluate the activity of test compounds against the house fly. Test compounds are dissolved in 100% acetone to 1000, 300, 100, 10 and 1 ppm. 100 µL of each of these dilutions is added to the bottom of a 20 mL glass scintillation vial with a pipettor. The vial is allowed to dry under a fume hood for 15 minutes. The vial is then turned on its side, and 250 µL of each dilution is applied to the sides of the vial. The vial is placed on a rolling machine and allowed to roll under the hood, coating the sides of the vial, until the acetone completely evaporates. The bottom of the vial measures 4.909 cm^2 and the sides measure 4.5 cm high x 8.8 cm around, so that the total coated area of the scintillation vial measures 44.51 cm^2. The amount of test compound applied by each dilution equals 7.86, 2.36, 0.79, 0.079, and 0.0079 µg/cm^2, respectively. Included in all tests are two to three replications of untreated vials. Adult house flies which are five to seven days old are chilled in a freezer for five minutes to immobilize, and are placed on a sorting platform which provides a steady stream of CO2 to keep the flies immobile. Five flies are counted into each scintillation vial with forceps. The top of the vial is plugged with a wad of sheet cotton sufficient to contain the flies. These tests are done in replicates of two to four so that there are 10 to 20 flies per rate/compound. Mortality readings are taken 1 and 4 hours after placing the flies in the vials. Flies which are unable to stand when disturbed are considered dead. Percent mortality is then calculated for each treatment.

[1] = dose 0.079 µg/cm^2, 4 hours, read-out: 4 Hour % Mortality
[2] = dose 0.790 µg/cm^2, 4 hours, read-out: 4 Hour % Mortality
[3] = dose 2.360 µg/cm^2, 4 hours, read-out: 4 Hour % Mortality

Which results are given for `CCOc1ccc(C(/C(F)=C/Cc2ccc(F)c(Oc3ccccc3)c2)C2CC2)cc1` (centres unmarked) [Compound 10, 1-[1-(p-Ethoxyphenyl)-2-fluoro-4-(4-fluoro-3-phenoxyphenyl)-2-butenyl]cyclopropane, (Z)-]?
mortality at 0.079 µg/cm2 (Dermacentor variabilis; [1]): 100%; mortality at 0.079 µg/cm2 (Dermacentor variabilis; dose 0.079 µg/cm^2, 24 hours, read-out: 24 Hour % Mortality): 100%; mortality at 0.79 µg/cm2 (Dermacentor variabilis; [2]): 100%; mortality at 0.79 µg/cm2 (Dermacentor variabilis; dose 0.790 µg/cm^2, 24 hours, read-out: 24 Hour % Mortality): 100%; mortality at 2.36 µg/cm2 (Dermacentor variabilis; [3]): 100%; mortality at 2.36 µg/cm2 (Dermacentor variabilis; dose 2.360 µg/cm^2, 24 hours, read-out: 24 Hour % Mortality): 100%; mortality at 7.86 µg/cm2 (Dermacentor variabilis; dose 7.860 µg/cm^2, 4 hours, read-out: 4 Hour % Mortality): 100%; mortality at 7.86 µg/cm2 (Dermacentor variabilis; dose 7.860 µg/cm^2, 24 hours, read-out: 24 Hour % Mortality): 100%; mortality at 0.079 µg/cm2 (Musca domestica; dose 0.079 µg/cm^2, 1 hour, read-out: 1 Hour % Mortality): 20%; mortality at 0.079 µg/cm2 (Musca domestica; [1]): 60%; mortality at 0.79 µg/cm2 (Musca domestica; dose 0.790 µg/cm^2, 1 hour, read-out: 1 Hour % Mortality): 20%; mortality at 0.79 µg/cm2 (Musca domestica; [2]): 75%; mortality at 2.36 µg/cm2 (Musca domestica; dose 2.360 µg/cm^2, 1 hour, read-out: 1 Hour % Mortality): 40%; mortality at 2.36 µg/cm2 (Musca domestica; [3]): 100%
